Laboratory results: patent publication EP4707284A1, “HETEROCYCLIC COMPOUND AND USE THEREOF” (Otsuka Pharmaceutical Co., Ltd., priority 2023, dated 2024)

Type: physicochemical
Details: Tris-hydrochloric acid buffer (pH 7.5) 50 mmol/L, magnesium chloride 5 mmol/L, evaluation compound 1 µmol/L, 37°C, 60 minutes, average of duplicate
Description: The conversion from the evaluation compounds to brexpiprazole in a buffer (i.e., the stability of the evaluation compounds) was evaluated.
The Example 1 compound was dissolved in acetonitrile/water (1:1, v/v) to 10 mmol/L and further diluted with acetonitrile/water (1:1, v/v) to 100 µmol/L for use.
The other Example compounds and the Reference Example 5 compound to Reference Example 7 compound were each dissolved in DMSO to 10 mmol/L and further diluted with acetonitrile to 100 µmol/L for use, except for the following compounds.
The compounds of Examples 52, 95, 96, 117, and 130 (EX 52, EX 95, EX 96, EX 117, and EX 130) were dissolved in acetonitrile/water (8:2, v/v) to 10 mmol/L and further diluted with acetonitrile to 100 µmol/L for use.
The compound of Example 97 (EX 97) was dissolved in acetonitrile/water (8:2, v/v) to 10 mmol/L and further diluted with acetonitrile/water (8:2, v/v) to 100 µmol/L for use.
The compounds of Examples 15 and 116 (EX 15 and EX 116) were dissolved in DMSO to 1 mmol/L and further diluted with acetonitrile to 100 µmol/L for use.
These evaluation compound solutions were prepared at the time of use.
The reaction was conducted by preparing each reaction solution such that the final concentration of each component was as follows. The test was conducted in duplicate.
For the compounds of Examples 1 to 8, 10 to 19, 26 to 27, 37, 50, 87 to 89, 91, 116, 121, 123, 150, and 151 (EX 1 to EX 8, EX 10 to EX 19, EX 26 to EX 27, EX 37, EX 50, EX 87 to EX 89, EX 91, EX 116, EX 121, EX 123, EX 150, and EX 151), and the compounds of Reference Examples 5 to 7 (REX 5 to REX 7), the reaction solution without the evaluation compound (198 µl) was pre-incubated at 37°C for 3 minutes, and then each of the evaluation compound solutions (2 µl) was added and stirred; thereafter, the reaction was started at 37°C. At 0 minutes or 60 minutes after the start of the reaction, the reaction was stopped by adding and stirring a reaction stop solution (1000 µl) composed of acetonitrile/isopropanol (4:1, v/v) containing internal standard substances. However, the 0-minute reaction sample (198 µl) was prepared by adding the evaluation compound (2 µl) after adding the reaction stop solution (1000 µl). The samples after stopping the reaction were used as the measurement samples. Calibration curve samples with the same composition were prepared (final concentrations of the evaluation compounds and brexpiprazole: 0.01, 0.1, and 1 µmol/L, with the proviso that for the evaluation compounds only, the 0-minute reaction samples were also used as calibration curve samples for 1 µmol/L).
For the compounds of Examples 24 to 25, 28 to 29, 32 to 36, 40 to 49, 51 to 60, 62 to 64, 66 to 77, 80 to 86, 90, 92 to 111, 113, 115, 117 to 120, 122, 124 to 130, 132 to 147, and 152 to 160 (EX 24 to EX 25, EX 28 to EX 29, EX 32 to EX 36, EX 40 to EX 49, EX 51 to EX 60, EX 62 to EX 64, EX 66 to EX 77, EX 80 to EX 86, EX 90, EX 92 to EX 111, EX 113, EX 115, EX 117 to EX 120, EX 122, EX 124 to EX 130, EX 132 to EX 147, and EX 152 to EX 160), the reaction solution without the evaluation compound (148.5 µl) was pre-incubated at 37°C for 3 minutes, and then each of the evaluation compound solutions (1.5 µl) was added and stirred; thereafter, the reaction was started at 37°C. At 0 minutes or 60 minutes after the start of the reaction, the reaction was stopped by adding and stirring a reaction stop solution (600 µl) composed of acetonitrile/isopropanol (4:1, v/v) containing internal standard substances. However, the 0-minute reaction sample (148.5 µl) was prepared by adding the evaluation compound (1.5 µl) after adding the reaction stop solution (600 µl). The samples after stopping the reaction were used as the measurement samples. […]

SMILES	Concentration of brexpiprazole formed	Concentration of evaluation compound decreased
O=c1ccc2ccc(OCCCC[N+]3(COP(=O)([O-])O)CCN(c4cccc5sccc45)CC3)cc2[nH]1 [EX 1, (4-(benzo[b]thiophen-4-yl)-1-((4-((2-oxo-1,2-dihydroquinolin-7-yl)oxy)butyl)piperazin-1-ium-1-yl)methyl hydrogen phosphate]	0 nM	0 nM
O=c1ccc2ccc(OCCCC[N+]3(COP(=O)([O-])OCCCCO)CCN(c4cccc5sccc45)CC3)cc2[nH]1 [EX 10, (4-(benzo[b]thiophen-4-yl)-1-(4-((2-oxo-1,2-dihydroquinolin-7-yl)oxy)butyl)piperazin-1-ium-1-yl)methyl (4-hydroxybutyl) phosphate]	0 nM	-20 nM
O=c1ccc2ccc(OCCCC[N+]3(COP(=O)([O-])OCCCCCCCCO)CCN(c4cccc5sccc45)CC3)cc2[nH]1 [EX 11, (4-(benzo[b]thiophen-4-yl)-1-(4-((2-oxo-1,2-dihydroquinolin-7-yl)oxy)butyl)piperazin-1-ium-1-yl)methyl (8-hydroxyoctyl) phosphate]	0 nM	30 nM
COCCOP(=O)([O-])OC[N+]1(CCCCOc2ccc3ccc(=O)[nH]c3c2)CCN(c2cccc3sccc23)CC1 [EX 12, (4-(benzo[b]thiophen-4-yl)-1-(4-((2-oxo-1,2-dihydroquinolin-7-yl)oxy)butyl)piperazin-1-ium-1-yl)methyl (2-methoxyethyl) phosphate]	0 nM	20 nM
CC(C)C(=O)OCOP(=O)([O-])OC[N+]1(CCCCOc2ccc3ccc(=O)[nH]c3c2)CCN(c2cccc3sccc23)CC1 [EX 24]	0 nM	-110 nM
CC(C)(C)C(=O)OCOP(=O)([O-])OC[N+]1(CCCCOc2ccc3ccc(=O)[nH]c3c2)CCN(c2cccc3sccc23)CC1 [EX 25]	0 nM	-10 nM
CCCCCCCC(=O)OC(C)OP(=O)([O-])OC[N+]1(CCCCOc2ccc3ccc(=O)[nH]c3c2)CCN(c2cccc3sccc23)CC1 (stereo not shown) [EX 26]	0 nM	50 nM
CCCCCCCC(=O)OCOP(=O)([O-])OC[N+]1(CCCCOc2ccc3ccc(=O)[nH]c3c2)CCN(c2cccc3sccc23)CC1 [EX 27]	0 nM	0 nM
COCCC(=O)OCOP(=O)([O-])OC[N+]1(CCCCOc2ccc3ccc(=O)[nH]c3c2)CCN(c2cccc3sccc23)CC1 [EX 28]	-10 nM	-70 nM
CCOCCC(=O)OCOP(=O)([O-])OC[N+]1(CCCCOc2ccc3ccc(=O)[nH]c3c2)CCN(c2cccc3sccc23)CC1 [EX 29]	0 nM	-10 nM
CCOC(=O)CC(C)(C)CC(=O)OCOP(=O)([O-])OC[N+]1(CCCCOc2ccc3ccc(=O)[nH]c3c2)CCN(c2cccc3sccc23)CC1 [EX 32]	0 nM	10 nM
COCCOC(=O)OCOP(=O)([O-])OC[N+]1(CCCCOc2ccc3ccc(=O)[nH]c3c2)CCN(c2cccc3sccc23)CC1 [EX 33]	0 nM	0 nM
COCCOCCOC(=O)OCOP(=O)([O-])OC[N+]1(CCCCOc2ccc3ccc(=O)[nH]c3c2)CCN(c2cccc3sccc23)CC1 [EX 34]	0 nM	10 nM
COCCOCCOCCOC(=O)OCOP(=O)([O-])OC[N+]1(CCCCOc2ccc3ccc(=O)[nH]c3c2)CCN(c2cccc3sccc23)CC1 [EX 35]	0 nM	-20 nM
COCCCCOC(=O)OCOP(=O)([O-])OC[N+]1(CCCCOc2ccc3ccc(=O)[nH]c3c2)CCN(c2cccc3sccc23)CC1 [EX 36]	0 nM	-40 nM
CCCCCCCCOP(=O)([O-])OC[N+]1(CCCCOc2ccc3ccc(=O)[nH]c3c2)CCN(c2cccc3sccc23)CC1 [EX 37]	0 nM	60 nM
CC(O)CCOP(=O)([O-])OC[N+]1(CCCCOc2ccc3ccc(=O)[nH]c3c2)CCN(c2cccc3sccc23)CC1 (stereo not shown) [EX 40]	0 nM	60 nM
CC(C)(O)CCOP(=O)([O-])OC[N+]1(CCCCOc2ccc3ccc(=O)[nH]c3c2)CCN(c2cccc3sccc23)CC1 [EX 41]	0 nM	70 nM
O=c1ccc2ccc(OCCCC[N+]3(COP(=O)([O-])OC/C=C/CO)CCN(c4cccc5sccc45)CC3)cc2[nH]1 [EX 42]	0 nM	30 nM
O=c1ccc2ccc(OCCCC[N+]3(COP(=O)([O-])OC/C=C\CO)CCN(c4cccc5sccc45)CC3)cc2[nH]1 [EX 43]	0 nM	120 nM
O=c1ccc2ccc(OCCCC[N+]3(COP(=O)([O-])OCCCCCCO)CCN(c4cccc5sccc45)CC3)cc2[nH]1 [EX 44]	0 nM	-50 nM
O=c1ccc2ccc(OCCCC[N+]3(COP(=O)([O-])OCCCCCCCO)CCN(c4cccc5sccc45)CC3)cc2[nH]1 [EX 45]	0 nM	70 nM
O=c1ccc2ccc(OCCCC[N+]3(COP(=O)([O-])OCCCCCCCCCO)CCN(c4cccc5sccc45)CC3)cc2[nH]1 [EX 46]	0 nM	40 nM
O=c1ccc2ccc(OCCCC[N+]3(COP(=O)([O-])OCC4(CO)CC4)CCN(c4cccc5sccc45)CC3)cc2[nH]1 [EX 47]	0 nM	0 nM
CC(C)(CO)COP(=O)([O-])OC[N+]1(CCCCOc2ccc3ccc(=O)[nH]c3c2)CCN(c2cccc3sccc23)CC1 [EX 48]	0 nM	-30 nM
COCCCOP(=O)([O-])OC[N+]1(CCCCOc2ccc3ccc(=O)[nH]c3c2)CCN(c2cccc3sccc23)CC1 [EX 49]	0 nM	50 nM
COCCCCOP(=O)([O-])OC[N+]1(CCCCOc2ccc3ccc(=O)[nH]c3c2)CCN(c2cccc3sccc23)CC1 [EX 50]	0 nM	10 nM
CC(C)COCCOP(=O)([O-])OC[N+]1(CCCCOc2ccc3ccc(=O)[nH]c3c2)CCN(c2cccc3sccc23)CC1 [EX 51]	0 nM	50 nM
O=c1ccc2ccc(OCCCC[N+]3(COP(=O)([O-])OCCOCC4CC4)CCN(c4cccc5sccc45)CC3)cc2[nH]1 [EX 52]	0 nM	-40 nM
